Structures can show the parent of a compound that is named as a salt.
Biological target: NDM-1 (Klebsiella pneumoniae, UniProt C7C422)
Test: biochemical
Details: NDM-1 2.5 nM, 100 μM imipenem as substrate, 100 μM ZnSO4, pH 7.5, 30° C.
Method: Amplification was carried out by a polymerase chain reaction (PCR) with Pyrobest DNA polymerase (Takara Bio) in which a plasmid having an NDM-1 gene sequence (GenBank Accession number: FN396876) synthesized by Life Technologies Japan Ltd. (consignment synthesis) was used as a template and two primers ([…] and […]) were used. The amplified DNA fragments were digested with restriction enzymes Nco I and Xho I and were incorporated in a vector pET-28a(+) to acquire a recombinant plasmid. The plasmid was transformed into E. coli BL21(DE3) (Novagen), and the transformants thus obtained were grown to an absorbance at 600 nm of about 0.7 in 0.8 L of an SB medium (1.2% (w/v) bacto tryptone, 2.4% (w/v) yeast extract, 0.5% (v/v) glycerol, 0.072 M dipotassium hydrogenphosphate, and 0.028 M potassium dihydrogenphosphate) containing 30 μg/ml kanamycin. Isopropyl-β-D-thiogalactopyranoside was added to a final concentration of 1 mM, and induction was carried out at 20° C. overnight, followed by harvesting with a centrifuge.
50 mM HEPES (pH 7.5), 20 μg/ml BSA, 100 μM ZnSO4, 2% DMSO, and 100 μM imipenem as a substrate (these concentrations being final concentration) were added into a 1 ml quartz cell. […] A plurality of inhibitor concentrations were studied, a sigmoid curve was prepared from each inhibitory activity, and IC50 values were calculated.

NDM-1, sequence (C7C422 29-270, looked up): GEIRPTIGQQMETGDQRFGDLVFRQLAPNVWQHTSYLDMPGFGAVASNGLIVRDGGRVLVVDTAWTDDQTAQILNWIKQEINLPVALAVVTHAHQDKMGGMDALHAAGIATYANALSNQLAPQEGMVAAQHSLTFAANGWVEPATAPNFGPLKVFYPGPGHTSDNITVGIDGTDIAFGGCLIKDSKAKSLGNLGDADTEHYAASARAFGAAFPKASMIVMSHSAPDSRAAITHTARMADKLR

Compound	IC50 [µM]
O=C(O)/C(CCc1ccccc1)=C(/CCc1ccccc1)C(=O)O [Example 8, Disodium 2,3-diphenethylmaleate]	< 10
CC(C)/C(C(=O)O)=C(\Cc1ccc(OCC(=O)O)cc1)C(=O)O [Example 32]	< 10
CC(C)/C(C(=O)O)=C(\Cc1ccccc1)C(=O)O [Example 12, Disodium 3-benzyl-2-isopropylmaleate]	10 to 30
CC(C)/C(C(=O)O)=C(/C(=O)O)C1CCCC1 [Example 15, Disodium 2-cyclopentyl-3-isopropylmaleate]	< 10
CC(C)/C(C(=O)O)=C(\Cc1ccc(C(=O)NCC(N)=O)cc1)C(=O)O [Example 29, Disodium 2-[4-(2-amino-2-oxoethylcarbamoyl)benzyl]-3-isopropylmaleate]	< 10
CC(C)/C(C(=O)O)=C(\Cc1ccc(OCCn2ccnc2)cc1)C(=O)O [Example 35, Disodium 2-{4-[2-(1H-imidazol-1-yl)ethoxy]benzyl}-3-isopropylmaleate]	< 10
CC(C)/C(C(=O)O)=C(/C(=O)O)C1CCOCC1 [Example 22, Disodium 3-isopropyl-2-(tetrahydropyran-4-yl)maleate]	10 to 30
CC(C)/C(C(=O)O)=C(\Cc1ccc(C(=O)O)cc1)C(=O)O [Example 25, Trisodium 2-(4-carboxybenzyl)-3-isopropylmaleate]	10 to 30
CC/C(C(=O)O)=C(\SC(C)C)C(=O)O [Example 24, Disodium 3-ethyl-2-isopropylthiomaleate]	30 to 100
O=C(O)/C(Cc1ccccc1)=C(\C(=O)O)C1CCCC1 [Example 16, Disodium 3-benzyl-2-cyclopentylmaleate]	< 10
CC(C)/C(C(=O)O)=C(\Cc1ccc(OCC(N)=O)cc1)C(=O)O [Example 33, Disodium 2-[4-(2-amino-2-oxoethoxy)benzyl]-3-isopropylmaleate]	< 10
CC/C(C(=O)O)=C(\Cc1ccc(O)cc1)C(=O)O [Example 5, Disodium 3-ethyl-2-(4-hydroxybenzyl)maleate]	< 10
CC(C)/C(C(=O)O)=C(\Cc1ccc(C(N)=O)cc1)C(=O)O [Example 26, Disodium 2-(4-carbamoylbenzyl)-3-isopropylmaleate]	10 to 30
CC/C(C(=O)O)=C(/C(=O)O)C(C)C [Example 10, Disodium 3-ethyl-2-isopropylmaleate]	10 to 30
C/C(C(=O)O)=C(/C(=O)O)C(C)C [Example 9, Disodium 2-isopropyl-3-methylmaleate]	30 to 100
O=C(O)/C(=C(\C(=O)O)C1CCCC1)C1CCCC1 [Example 17, Disodium 2,3-dicyclopentylmaleate]	< 10
O=C(O)/C(=C(\C(=O)O)[C@H]1CC[C@@H](O)CC1)C1CCCC1 [Example 38, Disodium 2-cyclopentyl-3-(cis-4-hydroxycyclohexyl)maleate]	< 10
O=C(O)/C(CCc1ccccc1)=C(/Cc1ccccc1)C(=O)O [Example 7, Disodium 2-benzyl-3-phenethylmaleate]	< 10
CC/C(C(=O)O)=C(\Cc1ccccc1)C(=O)O [Example 4, Disodium 2-benzyl-3-ethylmaleate]	10 to 30

Compound	IC50 [µM]
CC(C)/C(C(=O)O)=C(\Cc1ccc(OC2CCNC2)cc1)C(=O)O (stereo not shown) [Example 36, Disodium 2-isopropyl-3-[4-(pyrrolidin-3-yloxy)benzyl]maleate]	< 10
CC(C)/C(C(=O)O)=C(\Cc1ccc(OCCNC(=N)N)cc1)C(=O)O [Example 37, Disodium 2-[4-(2-guanidinoethoxy)benzyl]-3-isopropyl maleate]	30 to 100
O=C(O)/C(=C(\C(=O)O)C1CCOCC1)C1CCOCC1 [Example 40, Disodium 2,3-bis(tetrahydro-2H-pyran-4-yl)maleate]	30 to 100
CC(C)/C(C(=O)O)=C(/C(=O)O)C1Cc2ccccc2C1 [Example 18, Disodium 2-(2,3-dihydro-1H-inden-2-yl)-3-isopropylmaleate]	< 10
CC(C)/C(C(=O)O)=C(\Cc1ccc(O)cc1)C(=O)O [Example 31, Trisodium 2-(4-oxidobenzyl)-3-isopropylmaleate]	10 to 30
O=C(O)/C(=C(\C(=O)O)[C@H]1CC[C@@H](O)CC1)[C@H]1CC[C@@H](O)CC1 [Example 39, Disodium 2,3-bis(cis-4-hydroxycyclohexyl)maleate]	< 10
CC(C)/C(C(=O)O)=C(/C(=O)O)C1CCCCC1 [Example 19, Disodium 2-cyclohexyl-3-isopropylmaleate]	< 10
CCC/C(C(=O)O)=C(\CCC)C(=O)O [Example 2, Disodium 2,3-di-n-propylmaleate]	10 to 30
CC/C(C(=O)O)=C(/C(=O)O)C1CCCC1 [Example 14, Disodium 2-cyclopentyl-3-ethylmaleate]	< 10
CC(C)/C(C(=O)O)=C(/C(=O)O)C(C)C [Example 11, Disodium 2,3-diisopropylmaleate]	10 to 30
Cc1ccccc1C/C(C(=O)O)=C(/C(=O)O)C(C)C [Example 13, Disodium 2-isopropyl-3-(2-methylphenyl)methylmaleate]	10 to 30
CC(C)/C(C(=O)O)=C(\Cc1ccc(C(=O)N2CCC(O)CC2)cc1)C(=O)O [Example 28, Disodium 2-[4-(4-hydroxypiperidine-1-carbonyl)benzyl]-3-isopropylmaleate]	30 to 100
CC(C)/C(C(=O)O)=C(/C(=O)O)[C@H]1CC[C@@H](O)CC1 [Example 21, Disodium 2-(cis-4-hydroxycyclohexyl)-3-isopropylmaleate]	< 10
CC(C)/C(C(=O)O)=C(\Cc1cccnc1)C(=O)O [Example 23, Disodium 2-isopropyl-3-[(pyridine-3-yl)methyl]maleate]	30 to 100
COc1ccc(C/C(C(=O)O)=C(/C(=O)O)C(C)C)cc1 [Example 30, Disodium 2-isopropyl-3-(4-methoxybenzyl)maleate]	< 10
O=C(O)/C(Cc1ccccc1)=C(/Cc1ccccc1)C(=O)O [Example 6, Disodium 2,3-dibenzylmaleate]	< 10
CC(C)/C(C(=O)O)=C(\Cc1ccc(C(=O)N2CCOCC2)cc1)C(=O)O [Example 27, Disodium 2-isopropyl-3-[4-(morpholine-1-carbonyl)benzyl]maleate]	10 to 30
CC(C)/C(C(=O)O)=C(\Cc1ccc(OCCN)cc1)C(=O)O [Example 34, Disodium 2-[4-(2-aminoethoxy)benzyl]-3-isopropylmaleate]	< 10
